# Columns and labels:
# Assay in all cases: selective drug sensitivity score (sDSS, relative to normal bone marrow) (sDSS (score)); higher = more potent and effective on the cell line relative to normal bone marrow cells
# Details in all cases: 72 h
# [1] = system: MHH-CALL-3
# [2] = system: MN-60
# [3] = system: KARPAS-45
# [4] = system: RCH-ACV
# [5] = system: SEM cells
# [6] = system: KASUMI-10
# [7] = system: MHH-CALL-4
# [8] = system: TANOUE
# [9] = system: HPB-ALL
# [10] = system: TMD5
# [11] = system: COG-LL-394h
# [12] = system: COG-LL-402h
# [13] = system: 380
# [14] = system: KOPN-8
# [15] = system: MOLT-14
# [16] = system: NALM-16
# [17] = system: P30-OHKUBO
# [18] = system: REH
# [19] = system: MHH-CALL-2
# [20] = system: NALL-1
# 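Further: ALL cell lines in 384-well plates, five doses spanning 10,000-fold, each plate scaled between vehicle and 100 µmol/L benzalkonium chloride controls, sDSS an adapted area-under-curve metric.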
Compound,selective drug sensitivity score [1],selective drug sensitivity score [2],selective drug sensitivity score [3],selective drug sensitivity score [4],selective drug sensitivity score [5],selective drug sensitivity score [6],selective drug sensitivity score [7],selective drug sensitivity score [8],selective drug sensitivity score [9],selective drug sensitivity score [10],selective drug sensitivity score [11],selective drug sensitivity score [12],selective drug sensitivity score [13],selective drug sensitivity score [14],selective drug sensitivity score [15],selective drug sensitivity score [16],selective drug sensitivity score [17],selective drug sensitivity score [18],selective drug sensitivity score [19],selective drug sensitivity score [20]
CNS(=O)(=O)Nc1nccc(Cc2c(C)c3ccc(Oc4ncccn4)cc3oc2=O)c1F (top concentration 1000 nM),-1.18,-1.18,-0.28,0.42,1.82,-1.18,1.02,-1.18,-1.18,-1.18,1.12,-1.18,-1.18,2.42,-0.98,0.72,-1.18,-0.38,1.32,2.22
COc1cc(OC)cc(N(CCNC(C)C)c2ccc3ncc(-c4cnn(C)c4)nc3c2)c1 [Erdafitinib] (top concentration 1000 nM),0.64,-0.56,-0.06,2.04,0.24,-0.06,-0.46,-0.56,1.64,4.74,-0.56,0.04,-0.56,-0.56,-0.56,-0.56,1.74,0.44,8.24,5.34
CNC(=O)c1ccc(N2C(=S)N(c3ccc(C#N)c(C(F)(F)F)c3)C(=O)C2(C)C)cc1F [Enzalutamide] (top concentration 10000 nM),-0.82,-0.22,-0.82,-0.72,-0.82,-0.82,-0.72,-0.32,8.28,-0.82,-0.32,0.68,-0.82,5.18,-0.02,-0.82,-0.52,-0.82,-0.12,-0.82
CN1CCN(c2ccc(C(=O)Nc3n[nH]c4ccc(Cc5cc(F)cc(F)c5)cc34)c(NC3CCOCC3)c2)CC1 [Entrectinib] (top concentration 1000 nM),-1.2,-1.2,-0.9,-1.2,3.5,3.2,0.4,-1.2,-1.2,-0.5,0.2,-0.7,-1.2,0.1,-0.7,0.5,-1.1,-1.2,-0.8,-0.3

# — the supplement of paper PMC8967900
